Some test systems named below: SF-539 CNS; M14 melanoma; OVCAR-8 ovarian; NCI-H460 lung; MDA-MB-231 breast; MDA-N; PC-3 prostate; T-47D breast; DU-145 prostate; SK-MEL-28 melanoma; CCRF-CEM leukemia; UACC-257 melanoma; 786-0 renal; TK-10 renal; HOP-62 NSCLC; SK-MEL-5 melanoma; IGROV1 ovarian; SF-295 CNS; SF-268 CNS; NCI-H522 lung.
Holding throughout (assay): NCI tumour cell line growth inhibition, 48 h

Molecules are shown by their SMILES.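 Results reflect a 48-hour exposure of cells in 96-well plates to compound at five concentrations. TGI is the concentration that stops growth completely.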 Bounds are passed on as bounds.

As to `COc1cc(C2SC(N)=Nc3c2c(C)nn3C(=O)c2ccccc2O)cc(OC)c1OC` (stereo unspecified), the TGI in the assay on SF-539 CNS, in the assay with M14 melanoma, with OVCAR-8 ovarian, in the assay on NCI-H460 lung, in the assay with MDA-MB-231 breast and with MDA-N was over 10 µM in each case. Moreover, the TGI in the assay with PC-3 prostate, with T-47D breast, with DU-145 prostate, in the assay with SK-MEL-28 melanoma, in the assay with CCRF-CEM leukemia and in the assay with UACC-257 melanoma was over 10 µM in each case. Also, the TGI in the assay with 786-0 renal was over 10 µM; in the assay on TK-10 renal, over 10 µM; in the assay on HOP-62 NSCLC it was over 10 µM; in the assay on SK-MEL-5 melanoma, over 10 µM; in the assay with IGROV1 ovarian, 9.01 µM; in the assay with SF-295 CNS, over 10 µM. In the assay on SF-268 CNS, this compound showed a TGI of over 10 µM.

Take `COc1ccccc1/C=C/C1=NN(c2cccc(S(=O)(=O)O)c2)C2(C1)SCC(=O)N2c1nc2ccccc2s1` (stereo unspecified): the TGI with SF-539 CNS, with M14 melanoma, in the assay on OVCAR-8 ovarian, with NCI-H460 lung, in the assay on MDA-MB-231 breast and in the assay with MDA-N was over 100 µM in each case. For the same compound, the TGI in the assay on PC-3 prostate is over 100 µM; with T-47D breast, 71.8 µM; in the assay with DU-145 prostate it was over 100 µM; in the assay on NCI-H522 lung, over 100 µM; with SK-MEL-28 melanoma, over 100 µM; in the assay on CCRF-CEM leukemia it was 90 µM. The TGI with UACC-257 melanoma, in the assay on 786-0 renal, in the assay on TK-10 renal, in the assay with SK-MEL-5 melanoma, with IGROV1 ovarian and in the assay with SF-268 CNS was over 100 µM throughout.

Consider `CCOC(=O)C1(C(N)=O)C(=O)c2ccncc2C1=O` (stereo unspecified), for which the TGI with SF-539 CNS, in the assay with M14 melanoma, in the assay on OVCAR-8 ovarian, with NCI-H460 lung, in the assay with MDA-MB-231 breast and with MDA-N was over 100 µM each time. The TGI in the assay with PC-3 prostate, in the assay with T-47D breast, in the assay on DU-145 prostate, in the assay on NCI-H522 lung, in the assay on SK-MEL-28 melanoma and in the assay with CCRF-CEM leukemia was over 100 µM throughout. In addition, the TGI with UACC-257 melanoma, in the assay with 786-0 renal, with SK-MEL-5 melanoma, in the assay on IGROV1 ovarian, in the assay with SF-295 CNS and with SF-268 CNS was over 100 µM throughout.

As for `O=C1/C(=C/c2ccccc2)CCCC1CN1CCCCC1` (stereo unspecified), the TGI in the assay on SF-539 CNS turned out to be 11.7 µM; in the assay on M14 melanoma, 3.36 µM; in the assay on OVCAR-8 ovarian, 4.13 µM; in the assay on NCI-H460 lung, 32.4 µM; in the assay on MDA-MB-231 breast, 3.89 µM; in the assay with MDA-N, 4.13 µM. Besides, the TGI worked out at 24.1 µM in the assay on PC-3 prostate; 3.92 µM in the assay on T-47D breast; 27.3 µM in the assay with DU-145 prostate; 2.05 µM in the assay with NCI-H522 lung; 3.77 µM with SK-MEL-28 melanoma; 22 µM in the assay with UACC-257 melanoma. Moreover, the TGI in the assay on 786-0 renal turned out to be 4.26 µM; in the assay with TK-10 renal, 8.02 µM; in the assay on HOP-62 NSCLC, 35.5 µM; in the assay on SK-MEL-5 melanoma, 15.6 µM; in the assay on IGROV1 ovarian it was 8.38 µM; with SF-295 CNS it was 33.6 µM. The same compound gave a TGI with SF-268 CNS of 3.59 µM.

For the compound `Cc1c2c(c(C)n1-c1ccccc1)C(=O)N(CCCCN1CCN(c3ccccc3)CC1)C2=O`, the TGI in the assay with SF-539 CNS was found to be 26.5 µM; in the assay on M14 melanoma it was 79.7 µM; with OVCAR-8 ovarian it was 31.4 µM; with NCI-H460 lung, 47.4 µM; in the assay with MDA-MB-231 breast, 24.1 µM; with MDA-N, 31.2 µM. The TGI in the assay with PC-3 prostate was 39.5 µM; in the assay with T-47D breast, 28.8 µM; in the assay on DU-145 prostate it was over 100 µM; in the assay with NCI-H522 lung, 39.4 µM; in the assay with CCRF-CEM leukemia, 26.1 µM; in the assay on UACC-257 melanoma, 22.2 µM. For the same compound, the TGI was 19 µM in the assay with 786-0 renal; over 100 µM with TK-10 renal; 36.1 µM in the assay on HOP-62 NSCLC; 13.6 µM with SK-MEL-5 melanoma; over 100 µM in the assay on IGROV1 ovarian; 53.7 µM in the assay on SF-295 CNS. Further, the TGI with SF-268 CNS is over 100 µM.

For `CCC1=NC(N/N=C/c2ccco2)=N/C1=C\c1ccccc1O`, the TGI in the assay with M14 melanoma was over 100 µM; in the assay with OVCAR-8 ovarian, over 100 µM; in the assay with NCI-H460 lung, 73.6 µM; in the assay with MDA-MB-231 breast, over 100 µM; with MDA-N it was over 100 µM; in the assay on PC-3 prostate, over 100 µM. In addition, the TGI was over 100 µM with T-47D breast; over 100 µM in the assay on DU-145 prostate; 49.3 µM in the assay with NCI-H522 lung; over 100 µM with SK-MEL-28 melanoma; 70.4 µM in the assay with CCRF-CEM leukemia; over 100 µM in the assay with UACC-257 melanoma. The TGI is over 100 µM with 786-0 renal; over 100 µM in the assay on TK-10 renal; over 100 µM in the assay on HOP-62 NSCLC; over 100 µM in the assay on SK-MEL-5 melanoma; 93.1 µM in the assay on IGROV1 ovarian; over 100 µM with SF-295 CNS. Also, the TGI in the assay on SF-268 CNS is over 100 µM.

For the compound `O=C(/C=C1\N=C(c2ccccc2)N(c2nc3ccc(Sc4ccccc4)cc3[nH]2)C1=O)/C=C/c1ccccc1`, the TGI was over 100 µM with M14 melanoma; over 100 µM in the assay with OVCAR-8 ovarian; over 100 µM in the assay with NCI-H460 lung; 53.8 µM in the assay on MDA-MB-231 breast; 33.6 µM in the assay with MDA-N; over 100 µM with PC-3 prostate. In addition, the TGI in the assay with T-47D breast is 82.6 µM; in the assay on DU-145 prostate, over 100 µM; in the assay with NCI-H522 lung it was 58.2 µM; in the assay with SK-MEL-28 melanoma, over 100 µM; with CCRF-CEM leukemia, over 100 µM; in the assay on UACC-257 melanoma, over 100 µM. Moreover, the TGI in the assay on 786-0 renal was over 100 µM; with TK-10 renal, 98.2 µM; in the assay with HOP-62 NSCLC, over 100 µM; with SK-MEL-5 melanoma, 61.3 µM; with IGROV1 ovarian, over 100 µM; with SF-295 CNS, over 100 µM. The compound further displayed a TGI with SF-268 CNS of over 100 µM.
